According to paper PMC10952572, “Improved PIEZO1 agonism through 4‐benzoic acid modification of Yoda1” (British Journal of Pharmacology, 2023):

Key:
mPIEZO1 = biological target: T1, mPIEZO1 (Mus musculus, UniProt E2JF22); test: Pre-treatment with analogue before Yoda1 stimulus, Ca2+ assay in mPIEZO1-TREx cells; type: cell-based; conditions: for 0.5 μM Yoda1-evoked peak ΔCa2+i (ΔF340/380), median fold difference compared to DMSO pretreatment: mPIEZO1-TREx, 10 μM compound 30 min pretreatment before 0.5 μM Yoda1
T1 construct: expressed in transfected cells
T1 sequence (E2JF22 whole entry): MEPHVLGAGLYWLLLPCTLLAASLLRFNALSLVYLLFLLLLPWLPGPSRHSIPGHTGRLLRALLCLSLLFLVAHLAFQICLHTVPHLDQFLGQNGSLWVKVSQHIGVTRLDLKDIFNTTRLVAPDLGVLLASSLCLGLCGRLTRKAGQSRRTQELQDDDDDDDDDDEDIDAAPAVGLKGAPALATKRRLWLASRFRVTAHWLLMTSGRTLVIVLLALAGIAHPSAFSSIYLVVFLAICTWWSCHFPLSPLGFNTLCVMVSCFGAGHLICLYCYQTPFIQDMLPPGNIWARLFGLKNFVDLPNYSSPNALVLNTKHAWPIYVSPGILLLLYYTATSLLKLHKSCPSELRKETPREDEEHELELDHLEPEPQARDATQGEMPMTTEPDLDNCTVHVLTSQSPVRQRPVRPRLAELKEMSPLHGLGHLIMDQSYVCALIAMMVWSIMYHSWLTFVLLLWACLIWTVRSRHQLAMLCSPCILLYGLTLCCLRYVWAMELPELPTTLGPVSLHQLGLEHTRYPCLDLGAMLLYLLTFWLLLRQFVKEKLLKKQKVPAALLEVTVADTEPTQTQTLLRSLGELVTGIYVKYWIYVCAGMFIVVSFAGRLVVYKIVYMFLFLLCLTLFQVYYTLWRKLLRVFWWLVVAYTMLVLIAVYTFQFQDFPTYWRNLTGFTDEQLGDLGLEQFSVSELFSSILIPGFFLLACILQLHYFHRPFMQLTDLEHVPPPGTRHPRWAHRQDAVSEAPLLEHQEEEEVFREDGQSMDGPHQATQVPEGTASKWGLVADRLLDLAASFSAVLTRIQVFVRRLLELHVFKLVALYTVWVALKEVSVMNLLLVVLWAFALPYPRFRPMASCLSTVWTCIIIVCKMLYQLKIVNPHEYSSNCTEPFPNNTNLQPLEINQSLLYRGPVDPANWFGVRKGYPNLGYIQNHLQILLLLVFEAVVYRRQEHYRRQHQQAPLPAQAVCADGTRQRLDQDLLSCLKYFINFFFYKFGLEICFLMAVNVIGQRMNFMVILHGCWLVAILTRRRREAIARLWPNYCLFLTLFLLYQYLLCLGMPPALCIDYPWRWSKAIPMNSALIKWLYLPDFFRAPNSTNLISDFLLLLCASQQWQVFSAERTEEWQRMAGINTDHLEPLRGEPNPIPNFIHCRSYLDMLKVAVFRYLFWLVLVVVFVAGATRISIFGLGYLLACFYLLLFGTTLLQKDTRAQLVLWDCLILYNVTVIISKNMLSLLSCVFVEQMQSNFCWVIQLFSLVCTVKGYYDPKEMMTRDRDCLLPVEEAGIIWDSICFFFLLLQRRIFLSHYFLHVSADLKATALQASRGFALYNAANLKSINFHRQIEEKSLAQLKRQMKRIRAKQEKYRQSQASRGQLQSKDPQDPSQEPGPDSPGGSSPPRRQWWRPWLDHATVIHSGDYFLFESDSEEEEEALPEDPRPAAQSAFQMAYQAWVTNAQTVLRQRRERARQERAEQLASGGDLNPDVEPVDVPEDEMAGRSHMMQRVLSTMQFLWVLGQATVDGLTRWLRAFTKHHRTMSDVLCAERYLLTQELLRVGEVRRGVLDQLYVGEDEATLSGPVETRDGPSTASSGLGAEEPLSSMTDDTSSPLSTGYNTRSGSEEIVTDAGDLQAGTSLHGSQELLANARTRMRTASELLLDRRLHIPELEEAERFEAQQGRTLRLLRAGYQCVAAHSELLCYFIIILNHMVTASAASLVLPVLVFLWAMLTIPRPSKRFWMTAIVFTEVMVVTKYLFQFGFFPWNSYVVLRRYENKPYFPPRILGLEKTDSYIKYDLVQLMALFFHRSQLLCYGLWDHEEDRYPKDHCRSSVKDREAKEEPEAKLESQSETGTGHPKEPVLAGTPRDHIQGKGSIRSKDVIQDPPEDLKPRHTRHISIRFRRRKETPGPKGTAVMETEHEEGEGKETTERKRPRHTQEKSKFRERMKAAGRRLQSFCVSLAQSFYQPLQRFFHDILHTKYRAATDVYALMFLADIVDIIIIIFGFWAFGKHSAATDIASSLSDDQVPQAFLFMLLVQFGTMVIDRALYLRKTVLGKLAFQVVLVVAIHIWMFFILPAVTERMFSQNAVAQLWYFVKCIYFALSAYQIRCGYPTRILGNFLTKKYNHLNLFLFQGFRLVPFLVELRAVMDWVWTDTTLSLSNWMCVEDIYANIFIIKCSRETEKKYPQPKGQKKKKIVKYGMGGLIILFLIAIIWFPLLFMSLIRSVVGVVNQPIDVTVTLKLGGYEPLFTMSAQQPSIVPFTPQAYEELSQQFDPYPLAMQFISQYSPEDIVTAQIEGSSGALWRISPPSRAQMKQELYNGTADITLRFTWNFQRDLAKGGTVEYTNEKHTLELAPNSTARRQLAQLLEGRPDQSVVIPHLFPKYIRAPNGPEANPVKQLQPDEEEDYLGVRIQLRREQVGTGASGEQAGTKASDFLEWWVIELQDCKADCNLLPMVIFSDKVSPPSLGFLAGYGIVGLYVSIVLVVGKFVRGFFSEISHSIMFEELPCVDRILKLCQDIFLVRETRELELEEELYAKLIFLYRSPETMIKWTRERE

mPIEZO2 = biological target: T2, mPIEZO2 (Mus musculus, UniProt Q8CD54); test: Intracellular Ca2+ measurement in HEK 293 cells overexpressing mPIEZO2; type: cell-based; conditions: 10 μM, versus non-transfected cells
T2 construct: host or cells: HEK 293, transient
Description: mPIEZO2 pCMV‐Sport6 was a gift from Ardem Patapoutian (Coste et al., [2015]), obtained via Addgene (Addgene plasmid #81073; http://n2t.net/addgene:81073; RRID:Addgene_81073). It was sequenced for validation. Transient transfection of the plasmid was achieved using Lipofectamine 3000 in HEK 293 cells, 48 h prior to measurements being made.
HEK 293‐TREx cells and their stably transfected derivatives or transiently transfected HEK 293 or HeLa cells were seeded at a density of 7.5 × 10^4 cells per well into poly‐D‐lysine‐coated 96‐well plates. The plates were either commercially pre‐coated with poly‐D‐lysine (Greiner Bio‐One #655946) or (Greiner Bio‐One #655090) were coated in‐house with 35 μl of a 10 μg·ml^−1 poly‐D‐lysine (Bio‐Techne, Cultrex # 3439‐100‐01) in sterile deionised water per well for at least 24 h and rinsed three times with 100 μl per well sterile D‐PBS before addition of cells. HUVECs were seeded into tissue culture‐treated 96‐well plates (Greiner Bio‐One #655090) at a density of either 2.5 × 10^4 cells 24 h before experimentation or 1.25 × 10^4 cells 48 h before experimentation. […] Measurements were made at room temperature on a 96‐well fluorescence plate reader (FlexStation 3, Molecular Devices, Sunnyvale, CA, USA) controlled by SoftMax Pro software v7.0.3. […]

mouse portal vein = test: Wire myography, relaxation of phenylephrine pre-constricted vein; conditions: for Relaxation of portal vein: 0.1-10 μM, pre-constricted with 10 μM phenylephrine; for EC50: mouse portal vein pre-constricted with 10 μM phenylephrine, Hill fit
Description: Mice were anaesthetised with isoflurane (5% induction and 1.5% maintenance) in 95% O2 according to Schedule 1 procedure approved by the UK Home Office. The portal vein was quickly dissected and placed in Krebs solution. The Krebs PV solution consisted of 118 mM NaCl, 4.7 mM KCl, 2.5 mM CaCl2, 1.2 mM KH2PO4, 1.2 mM MgSO4·7H2O, 25.2 mM NaHCO3 and 11.1 mM glucose. By means of a dissecting microscope, adhering perivascular tissue was carefully removed and the vein was cut into 1 mm segments.
Vein segments were mounted onto two thin stainless steel wires in an isometric myograph (Multi Wire Myograph System 620M from Danish Myograph Technology [DMT]), for which the force transducer was calibrated once per month according to the manufacturer's instructions. The recording chamber was filled with gassed Krebs solution (95% O2/5% CO2, pH 7.4). The segments were then stretched to a normalised internal diameter according to the manufacturer's instructions. The mounted rings were kept in a 5 ml chamber containing Krebs solution at 37°C and continuously bubbled with a gas mixture of 95% O2 and 5% CO2 (pH 7.4). After an equilibration period of 60 min, the contractile function of the vessel was tested by replacing the Krebs solution by 60 mM K^+ solution. Following washout, the vein was contracted once with 10 μM phenylephrine and then Yoda1, KC159 or KC289 was applied with the concentrations of 0.1 to 10 μM. The NOS inhibitor, L‐NAME, (100 μM), was pre‐incubated for 20 min before the PIEZO1 modulator.
Because the anticipated effect of test compounds was to cause vessel relaxation, phenylephrine was applied to induce tension and the maximum value of this tension was defined as 0% relaxation (no relaxation). The value of tension immediately prior to application of phenylephrine was defined as 100% relaxation. Data are normalised to these values because, otherwise, the intrinsic variability in the absolute amount of tension induced by phenylephrine obscured exploration of the relaxant effect of compounds.
OriginPro 2020 was used for the analysis of myography data. Myography traces show readings taken every 0.5 or 1 s and were smoothed with the Savitzky–Golay filter set to 70 points. To compare the agonistic activity of Yoda1 analogues, basal vessel tension prior to compound injection was subtracted. Maximal tension in the presence of PE alone was used to define 0% relaxation. The tension value prior to PE application was defined as 100% relaxation. Following the addition of test compounds, tension readings were taken at the last time point of the treatments and expressed as percentage relaxation.

[1] = In-house aqueous solubility in universal aqueous buffer; type: physicochemical; conditions: for Solubility in aqueous buffer relative to Yoda1: universal aqueous buffer pH 7.4
Description: Standard curves for each test compound were constructed. DMSO‐dissolved test compounds were added to universal aqueous buffer (45 mM ethanolamine, 45 mM KH2PO4 and 45 mM KOAc, pH 7.4): acetonitrile 80:20 (298.5 μl) at a final DMSO concentration of 0.5%. Samples were incubated at room temperature with 300 rpm shaking for 30 min; 200 μl of each well was transferred to a 96‐well polypropylene V‐bottomed collection plate, and absorbance readings were taken at 250–500 nm in 10 nm increments. Thus, the λ max was identified at which concentration versus absorbance was plotted to provide standard curves.
After filtration through hydrophilic PTFE 0.2 μm filters, 160 μl sample was transferred to wells of a 96‐well polypropylene V‐bottomed collection plate and 40 μl acetonitrile was added to each well. Absorbance readings were taken at 250–500 nm in 10 nm increments. Solubility was calculated at the appropriate λ max with reference to the standard curve.

Row | SMILES | 0.5 μM Yoda1-evoked peak ΔCa2+i (ΔF340/380), median fold difference compared to DMSO pretreatment (mPIEZO1) | Ca2+ elevations in cells overexpressing mPIEZO2 (mPIEZO2) | Relaxation of portal vein (mouse portal vein) | EC50 (mouse portal vein; Mus musculus) | Relaxation in portal vein from PIEZO1ΔEC mice (mouse portal vein; endothelial PIEZO1 deletion versus control mice) | Relaxant effect after L-NAME (mouse portal vein; pre-incubation with 100 μM L-NAME) | Solubility in aqueous buffer relative to Yoda1 [1] | solubility at 1.5 h ([1]; universal aqueous buffer, pH 7.4, aqueous buffer, kinetic from dmso stock, lower limit of detection 0.1 µM, read-out: Estimated solubility in universal aqueous buffer) | Inhibition of the action of Yoda1 (mPIEZO1; mPIEZO1 channels, 10 μM for 30 min prior to Yoda1) | EC50 (mouse portal vein)
1 | O=C([O-])c1ccc(-c2nnc(SCc3c(Cl)cccc3Cl)s2)cc1.[K+] [KC289] | −2.8 fold | not different from background signals in non‐transfected cells | concentration‐dependent relaxation | 1.2 µM | inhibited by endothelial PIEZO1 deletion | abolishes the relaxant effect | at least 160 times | – | – | –
2 | Clc1cccc(Cl)c1CSc1nnc(-c2cnccn2)s1 [Yoda1, 2‐[5‐[[(2,6‐dichlorophenyl)methyl]thio]‐1,3,4‐thiadiazol‐2‐yl]pyrazine] | – | – | concentration‐dependent relaxation | – | – | – | – | < 0.1 µM | – | –
3 | O=C(O)c1ccccc1-c1nnc(SCc2c(Cl)cccc2Cl)s1 [KC157] | +1.2 fold | – | – | – | – | – | – | – | failed to inhibit the action of Yoda1 | –
4 | O=C(O)c1ccc(-c2nnc(SCc3c(Cl)cccc3Cl)s2)cc1 [KC159] | −2.1 fold | not different from background signals in non‐transfected cells | concentration‐dependent relaxation | – | – | – | at least 160 times | – | – | 1.14 µM
